Measurements as given in article PMC3038857, “Using Nuclear Receptor Activity to Stratify Hepatocarcinogens” (PLoS ONE, 2011).
Like-named read-outs stand apart in the source and are kept apart here.

How the values were obtained:
[1] = test system: liver; details: in vivo
[2] = test system: AhR; assay: Aggregate nuclear receptor activity: AhR; details: aggregate human NR activity, in words
Excerpt: (§1) To summarize the activity of chemicals across the NR superfamily we aggregated the ToxCast assays for genes and NR groups as follows: retinoic X receptor-like (RXR; [drawing 5]; NR2B); peroxisome proliferator-activated receptor-like (PPAR; [drawing 6]; NR1C); constitutive androstane receptor ( [drawing 7]; [drawing 8]; [drawing 9] ); pregnane X receptor ( [drawing 10]; [drawing 11] ); liver X receptor-like (LXR; [drawing 12] , FXR; NR1H); and steroid receptor-like (SR; [drawing 13] , [drawing 14] , [drawing 15] ). These are shown visually in Figure 1(a). As there were differences in the number and types of assays for each group, aggregate activity was calculated as the average potency across the assays measured by the AC50 or LEC (described in Methods). This approach aggregated NR binding, activation, agonism or antagonism results into a single assessment of activity.
(§2) All data used in this analysis are publicly available from the ToxCast website (www.epa.gov/toxcast). The analysis was conducted using the R statistical language (www.r-project.org). For each chemical [drawing 77] , and assay [drawing 78] combination we derived either the AC50 (50% maximal activity concentration) or LEC (Lowest Effective Concentration) in [drawing 79] M denoted as, [drawing 80] . All chemicals are provided in Dataset S3 and all assays are given in Dataset S1. The procedure for evaluating the quality of [drawing 81] are described in the supplementary methods (Text S1) and all assay results are provided in Dataset S2. In order to facilitate comparison across the assays the [drawing 82] were transformed by the formula, [drawing 83] where [drawing 84] represents a the potency on an ascending scale, and [drawing 85] is the maximum concentration (lowest potency) across the data set.
(§3) The aggregate NR activity [drawing 86] , where [drawing 87] , was calculated using assays [drawing 88] . The aggregate scaled NR activity score for each chemical [drawing 89] was calculated as the average concentration value across the assays, scaled by the maximum value across all chemicals using Equation 1. [drawing 90] (1)

[3] = test system: PPAR; assay: Aggregate nuclear receptor activity: PPAR; details: aggregate human NR activity, in words
Excerpt: as §1, §2, §3

[4] = test system: SR; details: cited from earlier work
[5] = test system: SR (steroid receptor-like); assay: Aggregate nuclear receptor activity: SR; details: aggregate human NR activity, in words
Excerpt: as §1, §2, §3

[6] = test system: PXR; assay: Aggregate nuclear receptor activity: PXR; design: species or system human
Excerpt: as §1, §2, §3

[7] = test system: cytochrome P-450 in the 2B subfamily; details: mouse, in vivo; cited from earlier work
[8] = test system: LXR; assay: Aggregate nuclear receptor activity: LXR; details: aggregate human NR activity, in words
Excerpt: as §1, §2
as §3, with “(1)” left out

[9] = test system: human PXR; design: method as in PMID 16565514; details: cited from earlier work
[10] = test system: CAR; assay: Aggregate nuclear receptor activity: CAR; details: aggregate human NR activity, in words
Excerpt: as §1, §2, §3

[11] = test system: PPAR; design: method as in PMID 17084873; details: in rats; cited from earlier work
[12] = test system: liver; assay: Cancer lesion progression: 2-year chronic rat and mouse liver histopathology (ToxRefDB), lesion progression groups (LPG); details: liver lesions after 2-year chronic treatment, ToxRefDB data clustered into groups I-VIII
[13] = test system: AhR, CAR, PXR, PPAR, LXR, SR and RXR
[14] = aggregate human NR activity, in words

SMILES	lesion progression group (LPG) [1]	activity with AhR [2]	activity with PPAR [3]	activity with SR [5]	activity with PXR [6, 14]	activity with CAR [10]	also measured
CC[C@H](C)[C@H]1O[C@]2(C=C[C@@H]1C)C[C@@H]1C[C@@H](C/C=C(\C)[C@@H](O[C@H]3C[C@H](OC)[C@@H](O[C@H]4C[C@H](OC)[C@@H](NC)[C@H](C)O4)[C@H](C)O3)[C@@H](C)/C=C/C=C3\CO[C@@H]4[C@H](O)C(C)=C[C@@H](C(=O)O1)[C@]34O)O2.O=C(O)c1ccccc1 [Emamectin benzoate, (2aE,4E,5\S,6S,6\R,7S,8E,11R,13S,15S,17aR,20R,20aR,20bS)-20,20b-dihydroxy-5\,6,8,19-tetramethyl-6\-[(1S)-1-methylpropyl]-17-oxo-5\,6,6\,10,11,14,15,17,17a,20,20a,20b-dodecahydro-2H,7H-spiro[11,15-methanofuro[4,3,2-pq][2,6]benzodioxacyclooctadecine-13,2\-pyran]-7-yl 2,6-dideoxy-3-O-methyl-4-O-[2,4,6-trideoxy-3-O-methyl-4-(methylammonio)-a-L-arabino-hexopyranosyl]-a-L-arabino-hexopyranoside benzoate]	Emamectin benzoate	–	–	–	–	–	–
C=CC1(C)OC(=O)N(c2cc(Cl)cc(Cl)c2)C1=O (centres unmarked) [Vinclozolin, 3-(3,5-dichlorophenyl)-5-methyl-5-vinyl-1,3-oxazolidine-2,4-dione]	I	some activity	most consistently active	some activity	–	–	SR activity [4]: known SR active; activity with PXR [6]: some activity
CC(C1CC1)C(O)(Cn1cncn1)c1ccc(Cl)cc1 (centres unmarked) [Cyproconazole, 2-(4-chlorophenyl)-3-cyclopropyl-1-(1H-1,2,4-triazol-1-yl)butan-2-ol]	–	–	–	–	–	–	expression of a cytochrome P-450 in the 2B subfamily [7]: induce expression
CS(=O)(=O)c1cc(C(F)(F)F)ccc1C(=O)c1cnoc1C1CC1 [Isoxaflutole, (5-cyclopropylisoxazol-4-yl)[2-(methylsulfonyl)-4-(trifluoromethyl)phenyl]methanone]	I	–	–	–	–	–	–
CC(C)Oc1cc(-n2nc(C(C)(C)C)oc2=O)c(Cl)cc1Cl [Oxadiazon, 5-tert-butyl-3-(2,4-dichloro-5-isopropoxyphenyl)-1,3,4-oxadiazol-2(3H)-one]	I	consistently active	less frequently	less frequently	consistently active	consistently active	activity with LXR [8]: less frequently; human PXR activity [9]: known human PXR activity
CNC(=O)Oc1cccc2ccccc12 [Carbaryl, naphthalen-1-yl methylcarbamate]	–	–	–	–	–	–	SR activity [4]: activity
COC(=O)C(C)Oc1ccc(Oc2ccc(Cl)cc2Cl)cc1 (centres unmarked) [Diclofop-methyl, methyl 2-[4-(2,4-dichlorophenoxy)phenoxy]propanoate]	–	some activity	most consistently active	some activity	some activity	some activity	PPAR activity [11]: active; lesion progression group (LPG) [12]: I
CCCCOC(=O)c1ccccc1C(=O)OCCCC [Dibutyl phthalate, dibutyl phthalate]	–	–	–	–	–	–	overall NR activity [13]: low NR activity
CCOC(=O)CC(SP(=S)(OC)OC)C(=O)OCC (centres unmarked) [Malathion, diethyl 2-[(dimethoxyphosphorothioyl)thio]succinate]	–	some activity	most consistently active	some activity	some activity	some activity	SR activity [4]: known SR activity
CCOC(=O)C(C)OC(=O)c1cc(Oc2ccc(C(F)(F)F)cc2Cl)ccc1[N+](=O)[O-] (centres unmarked) [Lactofen, 2-ethoxy-1-methyl-2-oxoethyl 5-[2-chloro-4-(trifluoromethyl)phenoxy]-2-nitrobenzoate]	I	consistently active	less frequently	less frequently	–	consistently active	activity with LXR [8]: less frequently; activity with PXR [6]: consistently active
Cl[C@H]1[C@H](Cl)[C@@H](Cl)[C@@H](Cl)[C@H](Cl)[C@H]1Cl [Lindane, (1r,2R,3S,4r,5R,6S)-1,2,3,4,5,6-hexachlorocyclohexane]	Lindane	active	–	–	active	–	–
N#Cc1c[nH]cc1-c1cccc2c1OC(F)(F)O2 [Fludioxonil, 4-(2,2-difluoro-1,3-benzodioxol-4-yl)-1H-pyrrole-3-carbonitrile]	–	–	less frequently	less frequently	consistently active	–	activity with LXR [8]: less frequently
CCNC(=O)NC(=O)/C(C#N)=N/OC [Cymoxanil, (2E)-2-cyano-N-(ethylcarbamoyl)-2-(methoxyimino)acetamide]	Cymoxanil	–	–	–	–	–	–
